The values that follow are results of earlier work, collected in US12138235B2, “Cape-loaded targeted microvesicular cancer drug and method for developing the same” (YEDITEPE UNIVERSITESI, priority 2017, dated 2024).

Series [1] has as its system MCF-7, MDA-MB-231 and TNBC breast cancer cell lines. Particulars: CAPE 40 μM.
A further series relates to breast cancer stem cells. Particulars: CAPE 40 μM.
In series [2] the test system is LNCaP, DU-145 and PC-3 prostate cancer cell lines.
Series [3] concerns ME180 cervical cancer cell lines. To be noted: CAPE 50 μM.
For series [4], the system named is TW2.6 oral squamous cell carcinoma cell line. To be noted: CAPE 100 μM.
In series [5] the test system is SK-1 Hep1 liver cancer cell line. Particulars: combined treatment of CAPE 30 μg/ml and TRAIL.
The conditions of series [6]: rats, prophylactic administration.
For series [7] the following is noted: rats.
The subject of series [8] is SH-SY5Y neuroblastoma cell line. To be noted: CAPE 4-20 μM.

Consider `O=C(/C=C/c1ccc(O)c(O)c1)OCCc1ccccc1` [CAPE, caffeic acid phenethyl ester], for which the “cell proliferation, cell cycle arrest, apoptosis, angiogenesis” value in [1] is “dose-dependently stops cell proliferation, induces cell cycle arrest and apoptosis, and suppresses angiogenesis”. The “proliferation of breast cancer stem cells” value in the series on breast cancer stem cells is on record as “inhibits proliferation of breast cancer stem cells”. In [2], the “cell proliferation and Akt signaling pathway” value was “dose-dependently inhibits cell proliferation”. Also, the “proliferation, cell cycle arrest, apoptosis” value in series [3] is “prevents proliferation by inducing S and G2/M phase cell cycle arrests and induces apoptosis”. For the same compound, the “cell cycle phase populations and apoptosis” value in [4] is “decreased G1 phase cell population, increased G2/M phase cell population and induced apoptosis”. Further, the “caspase activation, cell death receptors, apoptosis” value in [5] is “caspase activation increased, cell death receptors were activated via JNK and p38 signaling pathways and apoptosis was induced”. Moreover, in [6], the “damage caused by doxorubicin in kidney, heart and brain tissues” value is “prevented the damage”; the “liver damage depending on administration of cisplatin and tamoxifen” value is “prevented the damage”. The “radiation induced lung injury” value in series [7] is listed as “decreased radiation induced lung injury”. Besides, the “effect in SH-SY5Y cells” value in [8] is recorded as “no effect was observed”.
